Series [1] addresses T1, Dopamine D2S (Homo sapiens, UniProt P14416).
T1 construct: purchased Eurofins Panlabs Discovery Services Taiwan, Ltd
Nature of the series: Off-target 219700. In kind it is binding. Here is the method: (§1) The potential off-target activity of 10 µM (OEG2)2-IP4 was assessed against a panel of 87 enzymes, receptors, or ion channels that are used in standard safety pharmacology screens.
(§2) 3.2. Off-target screening assay
(§3) The experiments were conducted by a contract research organization (Eurofins Panlabs Discovery Services Taiwan, Ltd.) and details on the respective assays can be retrieved via the catalog number provided in Supplementary Table 11 from the company’s webpage
(§4) (https://www.eurofinsdiscoveryservices.com/). […]
(§5) At sacrifice the left tibia of animals of the rat model with dietary adenine/high-phosphate-induced uremia and VC was collected, fixed with 70% v/v EtOH and embedded in methyl methacrylate. The trabecular bone compartment is known to be the most metabolic active i.e. actively re-structured bone compartment in CKD. Therefore, histomorphometric and micro-computed tomography (µCT) analysis of bone was performed on the trabecular compartment. Tibial sections were Goldner-stained for histomorphometric analysis of the proximal metaphysis using the AxioVision Release 4.5 software, as […]
(§6) described previously5. […]

Series [2] deals with T2, (Homo sapiens, UniProt P25100).
T2 construct: purchased Eurofins Panlabs Discovery Services Taiwan, Ltd
T2 sequence (P25100 whole entry): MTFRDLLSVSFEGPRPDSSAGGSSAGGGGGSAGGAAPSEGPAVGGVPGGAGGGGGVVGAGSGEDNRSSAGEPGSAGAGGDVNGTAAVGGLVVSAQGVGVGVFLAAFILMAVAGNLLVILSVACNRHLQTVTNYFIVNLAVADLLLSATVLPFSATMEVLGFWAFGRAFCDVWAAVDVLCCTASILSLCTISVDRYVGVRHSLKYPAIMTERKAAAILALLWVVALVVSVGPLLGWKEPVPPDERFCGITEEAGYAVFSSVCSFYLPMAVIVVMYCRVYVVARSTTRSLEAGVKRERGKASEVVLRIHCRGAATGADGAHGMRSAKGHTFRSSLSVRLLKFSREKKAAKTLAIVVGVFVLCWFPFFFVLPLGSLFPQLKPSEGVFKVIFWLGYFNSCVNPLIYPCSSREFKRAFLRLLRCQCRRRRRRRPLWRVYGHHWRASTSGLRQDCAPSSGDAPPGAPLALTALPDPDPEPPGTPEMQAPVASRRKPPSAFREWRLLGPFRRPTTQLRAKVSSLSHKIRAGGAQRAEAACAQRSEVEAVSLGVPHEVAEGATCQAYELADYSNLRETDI
Nature of the series: Off-target 203400. The format is binding. How it is done:
as §1, §2, §3, §4, §5, §6

In series [3] the target is T3, Serotonin (5-Hydroxytryptamine) 5-HT3 (Homo sapiens, UniProt P46098).
T3 construct: purchased Eurofins Panlabs Discovery Services Taiwan, Ltd
T3 sequence (P46098 24-478): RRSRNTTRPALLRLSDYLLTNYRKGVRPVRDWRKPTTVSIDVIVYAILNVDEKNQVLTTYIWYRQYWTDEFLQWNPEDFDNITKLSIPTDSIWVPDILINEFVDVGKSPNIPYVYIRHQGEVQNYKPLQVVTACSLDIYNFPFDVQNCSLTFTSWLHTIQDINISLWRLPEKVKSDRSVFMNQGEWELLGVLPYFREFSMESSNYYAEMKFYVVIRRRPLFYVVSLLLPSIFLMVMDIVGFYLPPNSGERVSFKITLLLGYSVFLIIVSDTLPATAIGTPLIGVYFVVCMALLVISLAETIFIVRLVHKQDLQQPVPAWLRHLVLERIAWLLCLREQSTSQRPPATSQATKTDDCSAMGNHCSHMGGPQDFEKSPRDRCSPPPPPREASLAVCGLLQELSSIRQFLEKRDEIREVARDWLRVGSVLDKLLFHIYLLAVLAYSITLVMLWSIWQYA
In words: Off-target 271910. The format is binding. Here is the method:
as §1, §2
(§7) The experiments were conducted by a contract research organization (Eurofins Panlabs Discovery
(§8) Services Taiwan, Ltd.) and details on the respective assays can be retrieved via the catalog number
(§9) provided in Supplementary Table 11 from the company’s webpage
as §4

Series [4] has as its target T4, Histamine H2 (Homo sapiens, UniProt P25021).
T4 construct: purchased Eurofins Panlabs Discovery Services Taiwan, Ltd
In words: Off-target 239710. The format is binding. How it is done:
as §1, §2, §3, §4, §5, §6

Series [5] concerns the target T5, Muscarinic M4 (Homo sapiens, UniProt P08173).
T5 construct: purchased Eurofins Panlabs Discovery Services Taiwan, Ltd
Nature of the series: Off-target 252910. In kind it is binding. Here is the method: as §1, §2, §7, §8, §9, §4

Series [6] deals with Protein Serine/Threonine Kinase, PKC, Non-selective. Nature of the series: Off-target 178010. In kind it is biochemical, Rat. To be noted: 10 µM. Here is the method:
as §1, §2, §3, §4, §5, §6

Series [7] concerns bone. Nature of the series: Tibial bone histomorphometry, adenine model. In kind it is in vivo, male Wistar rats. Here is the method:
At sacrifice the left tibia of animals of the rat model with dietary adenine/high-phosphate-induced uremia and VC was collected, fixed with 70% v/v EtOH and embedded in methyl methacrylate. The trabecular bone compartment is known to be the most metabolic active i.e. actively re-structured bone compartment in CKD. Therefore, histomorphometric and micro-computed tomography (µCT) analysis of bone was performed on the trabecular compartment. Tibial sections were Goldner-stained for histomorphometric analysis of the proximal metaphysis using the AxioVision Release 4.5 software, as described previously5. The total bone area (as percentage of total tissue area), osteoid area (as percentage of total bone area), and mineralized bone area (as percentage of total tissue area) were calculated from the primary measurements. Images of osteoclast and osteoblast were taken (Leica

The target in series [8] is T6, Peptidase, Angiotensin Converting Enzyme (Oryctolagus cuniculus, UniProt P12822).
T6 construct: purchased Eurofins Panlabs Discovery Services Taiwan, Ltd
In words: Off-target 107300. The format is biochemical, Rabbit. How it is done: as §1, §2, §7, §8, §9, §4

Series [9] addresses T7, α2B (Homo sapiens, UniProt P18089).
T7 construct: purchased Eurofins Panlabs Discovery Services Taiwan, Ltd
Nature of the series: Off-target 203710. The format is binding. Here is the method: as §1, §2, §7, §8, §9, §4

The nature of series [10]: Urinary excretion after s.c. administration. To be noted: 10 mg/kg s.c.; for Cumulative recovery from rat urine / dose excreted: healthy rats; for dose excreted: rat, urine, subcutaneous, 10 mg/kg, read-out: Cumulative recovery from rat urine. In kind it is in vivo, rat. Here is the method:
To study urinary excretion, six animals were administered s.c. 10 mg/kg of (OEG2)2-IP4 and two animals served as blank urine controls. Animals were placed in separated metabolic cages ([…] S.p.A. Buguggiate, Italy) right after dosing, left there for the entire experiment, and urine was collected after 2, 5, 8, and 24 h. At the end of the experiment, cages were washed with 10 mL water and the washes were collected in separated tubes. Urine samples were centrifuged at 3000 × g and 4 °C for 10 min and stored at −20 °C until quantification of (OEG2)2-IP4 by LC-MS/MS. Recovery (%) was calculated using Eq. (2).2 Recovery%=OEG22IP4μg/doseμg×ratweightkg×100.

Series [11] concerns serum CPP. Nature of the series: CPP calcium, CPP2 hydrodynamic diameter and T50 in rat sera at sacrifice. In kind it is in vivo, male Wistar rats. To be noted: 5, 15, 50 mg/kg/day. How it is done:
The inhibitory effect of (OEG2)2-IP4 on heart calcifications was significant starting at 15 mg/kg/day (Fig. 6b). The compound’s activity was also evident following von Kossa staining (Fig. 6c) on the thoracic part of the aorta, and quantification of the von Kossa-positive area (Fig. 6d). […] In the femoral artery, reduction in bulk calcium was insignificant for all tested groups, likely due to the low level of calcification detected in the vehicle control (Fig. 6f, Supplementary Table 9).
DLS analysis of CPPs induced in serum samples collected from in vivo adenine-induced VC studies and stored at −20 °C was performed as described for human serum samples and CPP hydrodynamic diameter development was monitored by hourly DLS measurements.
The first group was treated with vehicle (double distilled (d.d.) water), the second, third, and fourth groups were treated with daily doses equivalent of 5, 15, and 50 mg/kg of (OEG2)2-IP4, respectively, in 2 mL d.d. water starting 1 week after the administration of the adenine diet. […] Serum samples were analyzed for creatinine according to the Jaffe method, calcium (using flame atomic absorption spectrometry[74]), and phosphate (DiaSys Diagnostic Systems, Holzheim, Germany) concentrations. […] In addition, serum aliquots were centrifuged (10,000 × g, 4 °C, 30 min) and T50’s were determined as described above. […]

Series [12] addresses T8, Estrogen ERα (Homo sapiens, UniProt P03372).
T8 construct: purchased Eurofins Panlabs Discovery Services Taiwan, Ltd
In words: Off-target 226010. In kind it is binding. How it is done:
as §1, §2, §3, §4, §5, §6

Series [13] has as its target T9, hERG potassium channel (Homo sapiens, UniProt Q12809).
T9 construct: purchased Eurofins Panlabs Discovery Services Taiwan, Ltd
Nature of the series: Off-target 265900. The format is binding. How it is done: as §1, §2, §3, §4, §5, §6

Series [14] addresses T10, Neuropeptide Y Y1 (Homo sapiens, UniProt P25929).
T10 construct: purchased Eurofins Panlabs Discovery Services Taiwan, Ltd
Nature of the series: Off-target 257010. The format is binding. How it is done:
as §1, §2, §7, §8, §9, §4

In series [15] the test system is GABAA, Ro-15-1788, Hippocampus. In words: Off-target 226630. In kind it is binding, Rat. To be noted: 10 µM. How it is done:
as §1, §2, §7, §8, §9, §4

Values joined by “and” are separate entries in the source; they are usually repeats but may differ in a detail not shown here. Equal values may be shown once. Read-outs that look alike come from different tables or passages of the source.

One may read the inhibition as the relative decrease from the control value, in per cent. For orientation: % Inhibition means the relative decrease from the control value, in per cent.

T9 sequence (Q12809 whole entry): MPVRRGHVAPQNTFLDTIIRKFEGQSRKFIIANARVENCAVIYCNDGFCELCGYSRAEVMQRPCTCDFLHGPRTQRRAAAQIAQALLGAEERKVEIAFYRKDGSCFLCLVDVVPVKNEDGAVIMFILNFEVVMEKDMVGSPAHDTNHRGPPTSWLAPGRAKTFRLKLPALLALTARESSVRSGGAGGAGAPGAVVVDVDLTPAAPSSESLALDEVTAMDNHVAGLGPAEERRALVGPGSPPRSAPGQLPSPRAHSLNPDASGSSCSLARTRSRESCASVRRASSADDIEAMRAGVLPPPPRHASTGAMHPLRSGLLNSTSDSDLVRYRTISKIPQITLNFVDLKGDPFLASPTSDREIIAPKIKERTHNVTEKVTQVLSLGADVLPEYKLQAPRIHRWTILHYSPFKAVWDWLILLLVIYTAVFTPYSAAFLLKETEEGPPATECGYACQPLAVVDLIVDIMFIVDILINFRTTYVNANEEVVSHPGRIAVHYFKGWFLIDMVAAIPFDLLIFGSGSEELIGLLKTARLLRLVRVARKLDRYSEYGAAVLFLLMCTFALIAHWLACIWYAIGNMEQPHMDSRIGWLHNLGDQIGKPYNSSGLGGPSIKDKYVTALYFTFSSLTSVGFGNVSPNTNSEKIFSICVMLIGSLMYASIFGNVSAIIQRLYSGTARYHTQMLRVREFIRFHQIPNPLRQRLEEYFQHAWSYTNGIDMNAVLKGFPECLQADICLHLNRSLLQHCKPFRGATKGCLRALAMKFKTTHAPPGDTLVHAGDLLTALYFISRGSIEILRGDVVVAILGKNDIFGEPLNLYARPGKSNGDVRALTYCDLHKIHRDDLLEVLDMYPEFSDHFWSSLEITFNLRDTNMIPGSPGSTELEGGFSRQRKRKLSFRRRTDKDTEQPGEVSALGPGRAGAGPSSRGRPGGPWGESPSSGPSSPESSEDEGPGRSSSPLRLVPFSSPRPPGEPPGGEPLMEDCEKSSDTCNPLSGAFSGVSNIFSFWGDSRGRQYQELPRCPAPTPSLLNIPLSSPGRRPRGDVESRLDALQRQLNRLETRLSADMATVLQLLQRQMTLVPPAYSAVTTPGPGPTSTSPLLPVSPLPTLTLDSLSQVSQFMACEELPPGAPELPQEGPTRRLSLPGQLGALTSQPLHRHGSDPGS
T7 sequence (P18089 whole entry): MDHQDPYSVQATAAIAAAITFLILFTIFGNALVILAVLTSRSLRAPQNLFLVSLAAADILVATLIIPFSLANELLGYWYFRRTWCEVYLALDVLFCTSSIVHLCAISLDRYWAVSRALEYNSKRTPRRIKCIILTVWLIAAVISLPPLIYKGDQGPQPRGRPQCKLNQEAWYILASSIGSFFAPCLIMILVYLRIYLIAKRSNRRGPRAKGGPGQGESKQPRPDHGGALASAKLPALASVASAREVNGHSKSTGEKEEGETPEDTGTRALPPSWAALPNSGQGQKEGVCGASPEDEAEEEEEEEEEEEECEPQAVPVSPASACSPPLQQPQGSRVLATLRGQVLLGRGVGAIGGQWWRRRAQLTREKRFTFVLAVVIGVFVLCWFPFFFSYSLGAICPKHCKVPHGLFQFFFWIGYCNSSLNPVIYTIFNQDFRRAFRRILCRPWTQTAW
T1 sequence (P14416 1-414 isoform P14416-2): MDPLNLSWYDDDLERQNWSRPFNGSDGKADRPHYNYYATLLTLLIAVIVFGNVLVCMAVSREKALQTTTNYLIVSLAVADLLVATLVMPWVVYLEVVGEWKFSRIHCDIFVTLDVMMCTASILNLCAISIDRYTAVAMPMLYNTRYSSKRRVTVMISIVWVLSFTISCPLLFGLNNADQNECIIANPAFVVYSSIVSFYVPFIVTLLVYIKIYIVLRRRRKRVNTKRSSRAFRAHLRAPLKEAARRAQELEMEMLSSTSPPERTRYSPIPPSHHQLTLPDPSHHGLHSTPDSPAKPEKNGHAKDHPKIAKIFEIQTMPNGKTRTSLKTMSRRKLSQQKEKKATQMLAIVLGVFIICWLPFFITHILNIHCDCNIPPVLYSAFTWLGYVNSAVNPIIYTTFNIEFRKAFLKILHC
T4 sequence (P25021 whole entry): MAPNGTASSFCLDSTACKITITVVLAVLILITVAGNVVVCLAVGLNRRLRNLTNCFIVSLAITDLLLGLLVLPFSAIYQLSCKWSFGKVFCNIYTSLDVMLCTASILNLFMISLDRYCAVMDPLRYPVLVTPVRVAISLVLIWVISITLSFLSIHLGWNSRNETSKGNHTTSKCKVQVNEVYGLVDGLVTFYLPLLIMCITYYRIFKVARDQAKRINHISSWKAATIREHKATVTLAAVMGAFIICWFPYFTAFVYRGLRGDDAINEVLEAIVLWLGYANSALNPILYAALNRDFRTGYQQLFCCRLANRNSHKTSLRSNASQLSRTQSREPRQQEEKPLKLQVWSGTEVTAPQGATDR
T5 sequence (P08173 whole entry): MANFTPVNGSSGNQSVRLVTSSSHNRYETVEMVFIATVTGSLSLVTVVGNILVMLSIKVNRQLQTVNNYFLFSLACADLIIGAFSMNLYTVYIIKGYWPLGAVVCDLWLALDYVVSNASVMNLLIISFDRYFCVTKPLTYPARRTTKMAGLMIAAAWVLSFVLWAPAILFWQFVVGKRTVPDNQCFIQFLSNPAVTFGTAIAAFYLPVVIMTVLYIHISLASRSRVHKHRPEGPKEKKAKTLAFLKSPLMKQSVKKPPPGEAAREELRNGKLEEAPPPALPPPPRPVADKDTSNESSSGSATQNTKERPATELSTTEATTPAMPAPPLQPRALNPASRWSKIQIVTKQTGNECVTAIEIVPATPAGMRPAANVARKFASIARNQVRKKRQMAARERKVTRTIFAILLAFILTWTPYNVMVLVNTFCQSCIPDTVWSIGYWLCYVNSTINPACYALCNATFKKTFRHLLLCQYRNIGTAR
T8 sequence (P03372 whole entry): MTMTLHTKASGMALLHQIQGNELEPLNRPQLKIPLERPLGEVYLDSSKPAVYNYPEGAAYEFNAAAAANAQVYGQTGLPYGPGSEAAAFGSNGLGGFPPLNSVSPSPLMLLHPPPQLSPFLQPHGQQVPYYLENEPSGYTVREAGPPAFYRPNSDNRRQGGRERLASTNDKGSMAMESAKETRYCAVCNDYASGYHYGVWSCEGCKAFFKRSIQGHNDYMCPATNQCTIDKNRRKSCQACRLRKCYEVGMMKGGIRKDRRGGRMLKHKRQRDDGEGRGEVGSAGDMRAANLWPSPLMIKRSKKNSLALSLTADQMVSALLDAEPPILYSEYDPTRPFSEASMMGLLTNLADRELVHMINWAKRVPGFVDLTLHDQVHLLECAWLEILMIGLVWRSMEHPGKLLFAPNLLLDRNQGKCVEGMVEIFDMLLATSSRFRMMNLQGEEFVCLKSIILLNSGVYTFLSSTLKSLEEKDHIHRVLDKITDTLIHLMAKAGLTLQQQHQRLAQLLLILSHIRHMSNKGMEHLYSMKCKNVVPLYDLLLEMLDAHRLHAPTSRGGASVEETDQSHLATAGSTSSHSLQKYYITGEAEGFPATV
T10 sequence (P25929 whole entry): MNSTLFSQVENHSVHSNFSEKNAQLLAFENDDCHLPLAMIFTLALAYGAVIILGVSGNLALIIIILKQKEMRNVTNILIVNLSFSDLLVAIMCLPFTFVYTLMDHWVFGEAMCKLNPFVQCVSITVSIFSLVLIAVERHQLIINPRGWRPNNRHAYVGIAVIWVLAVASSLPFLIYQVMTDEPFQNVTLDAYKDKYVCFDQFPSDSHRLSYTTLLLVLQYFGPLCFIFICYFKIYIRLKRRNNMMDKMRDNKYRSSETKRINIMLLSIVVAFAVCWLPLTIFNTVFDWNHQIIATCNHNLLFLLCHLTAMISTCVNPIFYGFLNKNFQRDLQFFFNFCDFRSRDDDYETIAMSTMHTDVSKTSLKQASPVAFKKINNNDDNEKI

As for `COCCOCCO[C@@H]1[C@@H](OP(=O)(O)O)[C@H](OCCOCCOC)[C@@H](OP(=O)(O)O)[C@@H](OP(=O)(O)O)[C@H]1OP(=O)(O)O` [(OEG2)2-IP4, 4,6-Di-O-(methoxy-diethyleneglycol)-myo-inositol-1,2,3,5-tetrakis(phosphate)], the inhibition at 10 µM is 7% in [1]; 10% in series [2]; 8% in series [3]; -6% in [4]; 1% in series [5]; -23% in [8]. In addition, the inhibition at 10 µM was 3% in series [9], -1% in [12], 11% in [13] and -9% in [14]. The “% Inhibition” value in series [6] was -18%; in [15], 5%. Also, the “% bone area compared with vehicle” value in [7] (5, 15, 50 mg/kg/day) is reported as “significantly higher”. Also, the “osteoblast and osteoclast morphology” value in series [7] (rat, in vivo) is recorded as “not impacted”. Besides, the osteoid area result in [7] (treatment groups) is listed as “distinct increase in the osteoid area”. Further, the “mineralized trabecular bone area” value in series [7] (various doses tested) is reported as “unchanged mineralized trabecular bone area”. For the same molecule, the “intact dose recovered in the urine of healthy rats” value in [10] is given as “Forty percent”. Further, the “Cumulative recovery from rat urine” value is 21.7% and 21.3% and 24.6% and 20.5% in [10] (2 h, individual rats Fig. 4j); 49% and 34.7% and 40.7% and 37.3% and 32.9% in [10] (8 h); 52.9% and 39.5% and 42.5% and 38.2% and 34.7% in series [10] (24 h). Also, the dose excreted worked out at 26.7% in series [10] (2 h, individual rats Fig. 4j); 29.8% in series [10] (8 h); 34.4% in series [10] (24 h). For the same molecule, in series [11], the “serum CPP calcium content, CPP2 hydrodynamic diameter and T50 in sera at sacrifice” value was “did not differ between treatment groups”.

The values above are taken from article PMC7002685, “Inhibition of vascular calcification by inositol phosphates derivatized with ethylene glycol oligomers” (Nature Communications, 2020).
